According to ChEMBL document CHEMBL3351435, “New pyrrole derivatives with potent tubulin polymerization inhibiting activity as anticancer agents including hedgehog-dependent cancer” (J Med Chem, 2014):
Calls of active or inactive are those of the source. No cut-off for these calls is given here.

Key:
cells = settings: Homo sapiens, OVCAR-8, 96 h
Description: Cytotoxicity against human OVCAR8 cells assessed as growth inhibition after 96 hrs by Giemsa staining-based light microscopy

A549 = test: Cytotoxicity against human A549 cells assessed as growth inhibition after 48 hrs by MTT method; assay type: functional, cell-based; settings: A549, 48 h
[1] = Cytotoxicity against human MESSA cells assessed as growth inhibition after 72 hrs by CellTitre-Glo assay; assay type: functional, cell-based; settings: MES-SA
[2] = Cytotoxicity against human MESSA/DX5 cells assessed as growth inhibition after 72 hrs by CellTitre-Glo assay; assay type: functional, cell-based; settings: MES-SA/Dx5, 72 h
MCF7 = test: Cytotoxicity against human MCF7 cells after 96 hrs by Giemsa staining-based light microscopy; assay type: functional, cell-based; settings: MCF7, 96 h
HT-29 = test: Cytotoxicity against human HT-29 cells assessed as growth inhibition after 48 hrs by MTT method; assay type: functional, cell-based; settings: HT-29, 48 h
Tubulin = test: Inhibition of tubulin (unknown origin) polymerization incubated 15 mins prior to GTP addition by spectrophotometry; assay type: protein-complex assay, Homo sapiens
NCI/ADR-RES = test: Cytotoxicity against human NCI/ADR-RES cells assessed as growth inhibition after 96 hrs by Giemsa staining-based light microscopy; assay type: functional, cell-based
HeLa = test: Cytotoxicity against human HeLa cells assessed as growth inhibition after 48 hrs by MTT method; assay type: functional, cell-based
Tubulin (Homo sapiens) [3] = biological target: T1, Tubulin (Homo sapiens) (UniProt P68371+Q9H4B7+P0DPH7+P68366+Q13509+Q71U36+P04350+Q3ZCM7+P07437+P68363+Q9BQE3+Q6PEY2+Q13885+Q9BVA1+Q9BUF5); test: Displacement of [3H]colchicine from tubulin (unknown origin) at 5 uM after 10 mins; assay type: protein-complex assay
Tubulin (Homo sapiens) [4] = biological target: T1, Tubulin (Homo sapiens); test: Inhibition of tubulin (unknown origin) polymerization at 20 uM incubated 15 mins prior to GTP addition by spectrophotometry; assay type: protein-complex assay
K562 [5] = test: Cytotoxicity against human K562 cells assessed as growth inhibition after 96 hrs by Giemsa staining-based light microscopy; assay type: functional, cell-based; settings: K562, 96 h
K562 [6] = test: Cell cycle arrest in human K562 cells assessed as mitotic index at 10 times IC50 (reference value: […] +/- […]%); assay type: functional
HepG2 = test: Cell cycle arrest in human HepG2 cells at 500 to 2000 nM incubated for 24 hrs followed by compound washout measured after 24 hrs; assay type: functional, cell-based
[7] = Cell cycle arrest in human PC3 cells assessed as accumulation at G2/M phase at 500 nM after 24 hrs by propidium iodide staining-based flow cytometry; assay type: functional; settings: PC-3
RD [8] = test: Cell cycle arrest in human RD cells assessed as rounded cells at 500 nM after 24 hrs by propidium iodide staining-based flow cytometry; assay type: functional
[9] = Cell cycle arrest in human PC3 cells at 500 to 2000 nM incubated for 24 hrs followed by compound washout measured after 24 hrs; assay type: functional, cell-based; settings: PC-3
RD [10] = test: Cell cycle arrest in human RD cells assessed as accumulation at G2/M phase at 500 nM after 24 hrs by propidium iodide staining-based flow cytometry; assay type: functional
[11] = Cell cycle arrest in human PC3 cells assessed as rounded cells at 500 nM after 24 hrs by propidium iodide staining-based flow cytometry; assay type: functional; settings: PC-3
RD [12] = test: Cell cycle arrest in human RD cells at 500 nM incubated for 24 hrs followed by compound washout measured after 24 hrs; assay type: functional, cell-based
RD [13] = test: Cell cycle arrest in human RD cells at 1000 to 2000 nM incubated for 24 hrs followed by compound washout measured after 24 hrs; assay type: functional, cell-based

SMILES	IC50 (MCF7) [µM]	IC50 (Tubulin) [µM]	inhibition (Tubulin (Homo sapiens) [3]) [%]	further results
COc1ccc(-n2ccc(C(=O)c3cc(OC)c(OC)c(OC)c3)c2)cc1	0.25	1.2	76	IC50 (cells): 0.06 µM; IC50 (A549): 0.08 µM; IC50 [1]: 0.063 µM; IC50 [2]: 0.087 µM; IC50 (HT-29): 0.2 µM; IC50 (NCI/ADR-RES): 0.017 µM; IC50 (HeLa): 0.15 µM
COc1cc(C(=O)c2ccn(-c3cc(OC)c(OC)c(OC)c3)c2)cc(OC)c1OC		> 40		
COc1cc(C(=O)c2ccn(-c3cccc(N4CCCCC4)c3)c2)cc(OC)c1OC				inhibition (Tubulin (Homo sapiens) [4]): inactive
COc1cc(C(=O)c2ccn(-c3ccc(F)cc3)c2)cc(OC)c1OC	0.19	1.4	78	
COc1cc(-n2ccc(C(=O)c3ccccc3)c2)cc(OC)c1OC				inhibition (Tubulin (Homo sapiens) [4]): inactive
CNc1cccc(-n2ccc(C(=O)c3cc(OC)c(OC)c(OC)c3)c2)c1		1	92	IC50 (K562 [5]): 0.03 µM; Activity (K562 [6]): 61%
COc1cc(C(=O)c2ccn(-c3ccccc3N)c2)cc(OC)c1OC		6.8		
COc1cc(C(=O)c2ccn(-c3cccc(OCc4ccccc4)c3)c2)cc(OC)c1OC				inhibition (Tubulin (Homo sapiens) [4]): inactive
COc1cc(C(=O)c2ccn(-c3ccccc3Cl)c2)cc(OC)c1OC	4.5	8.8		
COc1ccc(C(=O)c2ccn(-c3cc(OC)c(OC)c(OC)c3)c2)cc1OC(C)C				inhibition (Tubulin (Homo sapiens) [4]): inactive
COc1cc(C(=O)c2ccn(-c3ccc(OC(C)C)cc3)c2)cc(OC)c1OC				inhibition (Tubulin (Homo sapiens) [4]): inactive
COc1cc(C(=O)c2ccn(-c3ccc(C)cc3)c2)cc(OC)c1OC		0.9	95	IC50 (K562 [5]): 0.03 µM; Activity (K562 [6]): 61%
COc1cc(C(=O)c2ccn(S(=O)(=O)c3ccccc3)c2)cc(OC)c1OC		16		
COc1cc(C(=O)c2ccn(-c3cccc(O)c3)c2)cc(OC)c1OC	0.4	1.2	86	
COc1cc(C(=O)c2ccn(C)c2)cc(OC)c1OC		> 40		
CC[C@]1(O)C[C@H]2CN(CCc3c([nH]c4ccccc34)[C@@](C(=O)OC)(c3cc4c(cc3OC)N(C=O)[C@H]3[C@@](O)(C(=O)OC)[C@H](OC(C)=O)[C@]5(CC)C=CCN6CC[C@]43[C@@H]65)C2)C1				Activity (HepG2): inactive; Activity [7]: Active; Activity (RD [8]): Active; Activity [9]: inactive; Activity (RD [10]): Active; Activity [11]: Active; Activity (RD [12]): Active; Activity (RD [13]): inactive
COc1cc(C(=O)c2ccn(-c3cccc([N+](=O)[O-])c3)c2)cc(OC)c1OC		8.9		
COc1cc(C(=O)c2ccn(-c3ccccc3O)c2)cc(OC)c1OC	0.53	1.7	67	
COc1cc(C(=O)c2ccn(-c3cccc(OC(C)C)c3)c2)cc(OC)c1OC	0.25	2.5	17	
COc1cc(C(=O)c2ccn(-c3ccc([N+](=O)[O-])cc3)c2)cc(OC)c1OC				inhibition (Tubulin (Homo sapiens) [4]): inactive
COc1cc(C(=O)c2ccn(-c3cccc(F)c3)c2)cc(OC)c1OC	1.3	2.1	55	
COc1ccc(-n2ccc(C(=O)c3cc(OC)c(OC)c(OC)c3)c2)cc1O	4.5	1.3	79	IC50 (A549): > 10 µM; IC50 (HT-29): > 10 µM; IC50 (HeLa): 0.2 µM

SMILES	IC50 (MCF7) [µM]	IC50 (Tubulin) [µM]	inhibition (Tubulin (Homo sapiens) [3]) [%]	further results
COc1cc(C(=O)c2ccn(-c3ccc(O)cc3)c2)cc(OC)c1OC	0.45		59	
COc1cc(C(=O)c2ccn(-c3ccccc3F)c2)cc(OC)c1OC	1	1	77	
COc1cc(C(=O)c2ccn(-c3cccc(Cl)c3)c2)cc(OC)c1OC	0.6	2.2	58	
COc1cc(C(=O)c2ccn(-c3ccccc3OC(C)C)c2)cc(OC)c1OC		6.1		
COc1cc(C(=O)c2ccn(Cc3ccccc3)c2)cc(OC)c1OC		> 40		
COc1ccc(-n2ccc(C(=O)c3cc(OC)c(OC)c(OC)c3)c2)cc1N	0.47	1.3	89	
COc1cc(C(=O)c2ccn(-c3cccc(N(C)C)c3)c2)cc(OC)c1OC	1	1.5	60	
COc1cc(C(=O)c2ccn(-c3cccc(-n4cccc4)c3)c2)cc(OC)c1OC	0.043	2.5	27	IC50 (K562 [5]): 0.09 µM; Activity (K562 [6]): 47%
COc1ccc(-n2ccc(C(=O)c3cc(OC)c(OC)c(OC)c3)c2)cc1[N+](=O)[O-]	0.83			
COc1cc(C(=O)c2cc[nH]c2)cc(OC)c1OC		> 40		
COc1cc(C(=O)c2ccn(-c3cccc(NS(C)(=O)=O)c3)c2)cc(OC)c1OC	0.06	0.86	84	Activity (K562 [6]): 61%
COc1cccc(-n2ccc(C(=O)c3cc(OC)c(OC)c(OC)c3)c2)c1	0.6	1.8	66	IC50 (cells): 0.25 µM; IC50 (A549): 3 µM; IC50 [1]: 0.262 µM; IC50 [2]: 0.471 µM; IC50 (HT-29): 0.8 µM; IC50 (NCI/ADR-RES): 0.09 µM; IC50 (HeLa): 1 µM
COc1cc(C(=O)c2ccn(-c3ccc(Cl)cc3)c2)cc(OC)c1OC	0.2	2.3	73	
COc1cc(C(=O)c2ccn(-c3ccc(N)cc3)c2)cc(OC)c1OC	0.015	1.3	81	
COc1cc(C(=O)c2ccn(-c3ccccc3[N+](=O)[O-])c2)cc(OC)c1OC				inhibition (Tubulin (Homo sapiens) [4]): inactive
COc1cc(C(=O)c2ccn(-c3cccc(C)c3)c2)cc(OC)c1OC	0.05	0.95	79	
COc1ccccc1-n1ccc(C(=O)c2cc(OC)c(OC)c(OC)c2)c1	3.5	2.7	50	IC50 (cells): 0.45 µM; IC50 (A549): 1 µM; IC50 [1]: 0.515 µM; IC50 [2]: 0.653 µM; IC50 (HT-29): 1 µM; IC50 (NCI/ADR-RES): 0.2 µM; IC50 (HeLa): 0.9 µM
COc1cc(C(=O)c2ccn(-c3ccccc3C)c2)cc(OC)c1OC		13		
O=C(c1ccccc1)c1ccn(-c2ccccc2)c1				inhibition (Tubulin (Homo sapiens) [4]): inactive
COc1ccc(-n2ccc(C(=O)c3cc(OC)c(OC)c(OC)c3)c2)cc1OC(C)C		1.7	48	IC50 (A549): 1 µM; IC50 (HT-29): 0.8 µM; IC50 (HeLa): 0.8 µM
COc1ccc(C(=O)c2ccn(-c3cc(OC)c(OC)c(OC)c3)c2)cc1O				inhibition (Tubulin (Homo sapiens) [4]): inactive
COc1ccc(-n2ccc(C(=O)c3cc(OC)c(OC)c(OC)c3)c2)cc1OC	0.1	2.1	56	
